Reference: US7262296B2 (priority 2002, dated 2007)

Test system: hepatic drug metabolizing enzymes
Conditions: rat, in vivo; cited from earlier work

**Q.** With `O=C(/C=C/C=C/c1ccc2c(c1)OCO2)N1CCCCC1` [piperine] as the molecule, how does the “effect on hepatic drug metabolizing enzymes” value read?
**A.** inhibiting their activity

Test system: tip of the tongue of the volunteers
Conditions: human, in vivo

**Q.** For `O=C(/C=C/C=C/c1ccc2c(c1)OCCO2)N1CCOCC1` [iv, 5-(3,4-ethylenedioxyphenyl)-2E, 4E-pentadienoic acid morpholine amide], which Pungency index is on record?
**A.** 10^4

**Q.** For `COc1ccc(/C=C/C(=O)N2CCOCC2)cc1` [v, 3-(4-methoxyphenyl)-2E-propenoic acid morpholine amide], which Pungency index is on record?
**A.** 10^5

**Q.** With `O=C(/C=C/C=C/c1ccc2c(c1)OCO2)N1CCCCC1` [A, reference compound] as the molecule, how does the Pungency index read?
**A.** 10^4

**Q.** With `CCCCOc1ccc(/C=C/C(=O)N2CCOCC2)cc1` [vii, 3-(4-butyloxyphenyl)-2E-propenoic acid morpholine amide] as the molecule, how does the Pungency index read?
**A.** 10^7

**Q.** Which Pungency index does the source give for `CC(C)Oc1ccc(/C=C/C=C/C(=O)N2CCOCC2)cc1` [ii, 5-(4-isopropyloxyphenyl)-2E, 4E-pentadienoic acid morpholine amide] here?
**A.** 10^7

**Q.** With `O=C(/C=C/c1ccc2c(c1)OCCO2)N1CCOCC1` [x, 3-(3,4-ethylenedioxyphenyl)-2E-propenoic acid morpholine amide] as the molecule, how does the Pungency index read?
**A.** 10^4

**Q.** For `CC1(C)CCc2cc(/C=C/C=C/C(=O)N3CCOCC3)ccc2O1` [iii, 5-(2H)-2,2-dimethyl-3,4-dihydro-benzopyran-6yl-2E, 4E-pentadienoic acid morpholine amide], which Pungency index is on record?
**A.** 10^4

**Q.** Which Pungency index does the source give for `COc1ccc(/C=C/C=C/C(=O)N2CCOCC2)cc1` [i, 5-(4-methoxyphenyl)-2E, 4E-pentadienoic acid morpholine amide] here?
**A.** 10^6

**Q.** Which Pungency index does the source give for “3-(4-allyloxy phenyl)-2E-propenoic acid morpholine amide [viii]” here?
**A.** 10^4

**Q.** For `CC(C)Oc1ccc(/C=C/C(=O)N2CCOCC2)cc1` [vi, 3-(4-isopropyloxyphenyl)-2E-propenoic acid morpholine amide], which Pungency index is on record?
**A.** 10^6

**Q.** For “3-[(2H)-2,2-dimethyl-3,4-dihydro-benzopyran-6yl]-2E-propenoic acid morpholine amide [ix]”, which Pungency index is on record?
**A.** 10^6

Test system: tongue
Conditions: in vivo; cited from earlier work

**Q.** For `COc1cc(CNC(=O)CCCC/C=C/C(C)C)ccc1O` [capsaicin], which “heat units (pungency)” value is on record?
**A.** 10^7 units
